A short description of data set [1]: Cmax in BALB/c mouse at 3 mg/kg, po and 1 mg/kg, iv measured upto 24 hrs. It is filed as ADME, organism-based. The following applies: in vivo.
For data set [2], the target named is Receptor-interacting serine/threonine-protein kinase 3 (Homo sapiens, UniProt Q9Y572). Briefly: Inhibition of RIPK3 in human MOLM16 cells. In kind it is cell-based.
Data set [3] can be described thus: Toxicity in BALB/c nude mouse xenografted with human HT-1080 cells assessed as change in body weight at 0.3 to 3 mg/kg administered twice a day for 14 days. In kind it is organism-based. The following applies: in vivo, 336 h, dose 0.3-3 mg/kg, time 14 day. (In xenograft studies the graft and the host belong to different species.)
A short description of data set [4]: Half-life in BALB/c mouse at 3 mg/kg, po and 1 mg/kg, iv measured upto 24 hrs. It is filed as ADME, organism-based. The following applies: in vivo.
Data set [5] deals with T1, Serine/threonine-protein kinase Nek1 (Homo sapiens, UniProt Q96PY6).
T1 sequence (Q96PY6 whole entry): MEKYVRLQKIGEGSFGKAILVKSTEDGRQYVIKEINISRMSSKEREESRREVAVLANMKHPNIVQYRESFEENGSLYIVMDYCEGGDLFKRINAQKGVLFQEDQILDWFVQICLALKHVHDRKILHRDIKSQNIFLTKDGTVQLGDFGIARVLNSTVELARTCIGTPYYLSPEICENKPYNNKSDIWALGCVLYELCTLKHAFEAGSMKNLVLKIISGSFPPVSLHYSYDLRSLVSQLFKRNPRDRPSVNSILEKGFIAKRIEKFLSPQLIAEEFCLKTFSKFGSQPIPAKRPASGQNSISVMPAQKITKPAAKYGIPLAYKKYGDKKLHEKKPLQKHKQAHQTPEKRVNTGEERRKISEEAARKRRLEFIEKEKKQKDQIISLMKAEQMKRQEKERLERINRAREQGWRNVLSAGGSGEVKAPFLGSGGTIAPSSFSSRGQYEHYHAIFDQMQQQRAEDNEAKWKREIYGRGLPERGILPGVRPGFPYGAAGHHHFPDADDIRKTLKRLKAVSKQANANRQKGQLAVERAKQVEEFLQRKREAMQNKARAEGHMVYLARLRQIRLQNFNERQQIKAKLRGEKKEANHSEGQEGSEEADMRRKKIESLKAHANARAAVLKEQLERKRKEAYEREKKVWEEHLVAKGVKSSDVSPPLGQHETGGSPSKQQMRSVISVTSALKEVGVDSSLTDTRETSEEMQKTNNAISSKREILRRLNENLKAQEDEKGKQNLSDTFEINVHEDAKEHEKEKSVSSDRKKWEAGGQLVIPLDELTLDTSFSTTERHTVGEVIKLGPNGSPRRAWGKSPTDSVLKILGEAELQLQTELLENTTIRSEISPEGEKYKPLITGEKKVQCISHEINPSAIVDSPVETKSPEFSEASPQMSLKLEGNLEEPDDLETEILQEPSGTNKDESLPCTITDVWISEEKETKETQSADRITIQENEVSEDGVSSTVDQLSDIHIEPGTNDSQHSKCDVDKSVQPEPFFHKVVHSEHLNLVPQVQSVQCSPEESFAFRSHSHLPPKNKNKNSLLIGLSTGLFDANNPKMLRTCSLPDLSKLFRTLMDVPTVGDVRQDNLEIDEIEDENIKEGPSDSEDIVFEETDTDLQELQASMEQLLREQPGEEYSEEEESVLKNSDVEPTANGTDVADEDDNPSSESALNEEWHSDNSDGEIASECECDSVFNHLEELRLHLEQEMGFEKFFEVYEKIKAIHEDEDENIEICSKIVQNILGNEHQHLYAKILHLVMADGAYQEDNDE
Briefly: Inhibition of NEK1 in human MOLM16 cells. It is filed as cell-based.

The nature of data set [6]: Unbound AUC in BALB/c mouse at 3 mg/kg, po measured upto 24 hrs. In kind it is ADME, organism-based. The following applies: in vivo.
A short description of data set [7]: Unbound volume of distribution at steady state in BALB/c mouse at 3 mg/kg, po and 1 mg/kg, iv measured upto 24 hrs. It is filed as ADME, organism-based. The following applies: in vivo.
A short description of data set [8]: Volume of distribution at steady state in BALB/c mouse at 3 mg/kg, po and 1 mg/kg, iv measured upto 24 hrs. It is filed as ADME, organism-based. The following applies: in vivo.
Data set [9] concerns the target Mitogen-activated protein kinase kinase kinase 20 (Homo sapiens, UniProt Q9NYL2). The experiment in a line: Inhibition of ZAK in human MOLM16 cells. In kind it is cell-based.
Data set [10] deals with T2, Eukaryotic translation initiation factor 2-alpha kinase 3 (Homo sapiens, UniProt Q9NZJ5).
T2 sequence (Q9NZJ5 whole entry): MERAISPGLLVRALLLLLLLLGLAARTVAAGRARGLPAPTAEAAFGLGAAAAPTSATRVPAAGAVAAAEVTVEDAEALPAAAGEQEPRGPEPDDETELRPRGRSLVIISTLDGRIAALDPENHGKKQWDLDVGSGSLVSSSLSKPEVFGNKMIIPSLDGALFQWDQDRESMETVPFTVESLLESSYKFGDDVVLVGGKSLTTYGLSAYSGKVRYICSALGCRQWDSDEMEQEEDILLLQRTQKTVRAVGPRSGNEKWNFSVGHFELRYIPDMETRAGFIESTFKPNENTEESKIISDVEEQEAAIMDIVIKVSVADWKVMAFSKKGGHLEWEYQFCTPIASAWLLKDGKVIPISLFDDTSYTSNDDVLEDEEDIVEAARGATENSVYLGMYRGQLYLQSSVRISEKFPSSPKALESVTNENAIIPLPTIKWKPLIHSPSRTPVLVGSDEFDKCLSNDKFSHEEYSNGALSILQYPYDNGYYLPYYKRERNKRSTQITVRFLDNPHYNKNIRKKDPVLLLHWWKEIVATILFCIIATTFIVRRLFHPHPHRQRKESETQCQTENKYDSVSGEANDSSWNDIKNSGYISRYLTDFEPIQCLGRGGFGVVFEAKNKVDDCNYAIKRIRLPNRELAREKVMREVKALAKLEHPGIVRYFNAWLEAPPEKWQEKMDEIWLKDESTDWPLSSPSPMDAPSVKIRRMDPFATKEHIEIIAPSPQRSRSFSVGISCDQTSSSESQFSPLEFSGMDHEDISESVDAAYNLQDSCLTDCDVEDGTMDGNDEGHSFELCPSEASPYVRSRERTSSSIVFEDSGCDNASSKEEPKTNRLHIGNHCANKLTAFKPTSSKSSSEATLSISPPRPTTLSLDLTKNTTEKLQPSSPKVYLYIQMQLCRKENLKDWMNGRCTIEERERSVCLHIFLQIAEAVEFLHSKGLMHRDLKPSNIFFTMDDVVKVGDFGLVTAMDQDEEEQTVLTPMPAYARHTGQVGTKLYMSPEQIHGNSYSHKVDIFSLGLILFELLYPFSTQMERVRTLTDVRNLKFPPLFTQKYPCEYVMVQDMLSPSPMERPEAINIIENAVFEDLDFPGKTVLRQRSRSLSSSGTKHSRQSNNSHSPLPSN
Briefly: Activation of PERK in HEK293 cells transfected with ATF4 response element preincubated for 30 mins followed by tunicamycin addition and measured after 6 hrs by One-Glo reagent based plate reader assay. It is filed as cell-based.

Data set [11] is described as follows: Unbound volume of distribution at steady state in Sprague-Dawley rat at 1 mg/kg, iv measured upto 24 hrs. It is filed as ADME, organism-based. The following applies: in vivo.
Data set [12] in a line: Intrinsic clearance in human hepatocytes assessed per 10^4 cells at 1 uM measured upto 120 mins by UPLC-MS/MS analysis. In kind it is ADME, cell-based, Hepatocyte. The following applies: 2 h.

The values below come from ChEMBL document CHEMBL5543122, “Discovery of HC-7366: An Orally Bioavailable and Efficacious GCN2 Kinase Activator” (J Med Chem, 2024).

Mitogen-activated protein kinase kinase kinase 20, sequence (Q9NYL2 whole entry): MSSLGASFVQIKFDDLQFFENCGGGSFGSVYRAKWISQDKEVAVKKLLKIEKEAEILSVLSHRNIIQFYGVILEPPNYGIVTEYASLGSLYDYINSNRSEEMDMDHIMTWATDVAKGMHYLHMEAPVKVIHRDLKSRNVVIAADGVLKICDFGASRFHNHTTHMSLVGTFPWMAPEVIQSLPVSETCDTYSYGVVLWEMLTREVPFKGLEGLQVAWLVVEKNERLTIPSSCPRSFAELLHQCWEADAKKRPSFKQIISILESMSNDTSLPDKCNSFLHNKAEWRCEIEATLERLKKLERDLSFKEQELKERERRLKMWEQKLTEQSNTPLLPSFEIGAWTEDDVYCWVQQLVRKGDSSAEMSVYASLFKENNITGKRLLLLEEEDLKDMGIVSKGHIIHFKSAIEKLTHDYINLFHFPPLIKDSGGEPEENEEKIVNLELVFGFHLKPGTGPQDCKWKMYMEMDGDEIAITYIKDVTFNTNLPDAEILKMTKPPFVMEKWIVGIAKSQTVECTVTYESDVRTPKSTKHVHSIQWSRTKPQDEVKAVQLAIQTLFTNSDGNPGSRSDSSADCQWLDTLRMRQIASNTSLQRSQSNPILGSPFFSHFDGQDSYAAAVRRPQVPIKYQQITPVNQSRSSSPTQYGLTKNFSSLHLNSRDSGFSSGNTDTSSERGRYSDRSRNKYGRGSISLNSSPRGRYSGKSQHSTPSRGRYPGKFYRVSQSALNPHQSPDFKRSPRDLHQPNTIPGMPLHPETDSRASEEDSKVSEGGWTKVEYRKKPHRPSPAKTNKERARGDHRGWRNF
Receptor-interacting serine/threonine-protein kinase 3, sequence (Q9Y572 whole entry): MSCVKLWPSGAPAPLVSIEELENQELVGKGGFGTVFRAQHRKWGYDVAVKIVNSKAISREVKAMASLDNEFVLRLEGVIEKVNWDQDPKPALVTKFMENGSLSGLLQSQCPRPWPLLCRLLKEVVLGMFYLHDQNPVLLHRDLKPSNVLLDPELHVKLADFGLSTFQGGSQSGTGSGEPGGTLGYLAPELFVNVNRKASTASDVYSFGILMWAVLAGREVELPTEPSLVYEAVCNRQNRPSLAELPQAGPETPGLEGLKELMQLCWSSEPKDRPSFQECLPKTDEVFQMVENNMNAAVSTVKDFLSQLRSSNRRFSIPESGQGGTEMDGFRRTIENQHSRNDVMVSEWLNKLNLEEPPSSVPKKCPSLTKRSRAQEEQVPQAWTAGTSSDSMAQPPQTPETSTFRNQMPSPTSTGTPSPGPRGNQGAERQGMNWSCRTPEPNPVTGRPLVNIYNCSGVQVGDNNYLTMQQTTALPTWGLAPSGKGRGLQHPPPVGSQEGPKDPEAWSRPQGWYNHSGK

In general, Cmax refers to the peak of the concentration-time curve. Broadly, the IC50 is the concentration at which inhibition is half-maximal. What is called half-life is the time needed for the level to fall by half in the phase considered. Read a high half-life as slow decline. The EC50 is the concentration needed to bring the measured effect to its halfway point. Higher therefore signals a need for much substance. The compound `CNC(=O)c1ncn2cc(-c3c(F)ccc(NS(=O)(=O)c4cc(Cl)cnc4OC)c3F)ncc12` gave a Cmax in data set [1] of 26.1 µM. For the same compound, the figures for the IC50 in data set [2], in data set [5] and in [9] were 9 µM, 9.3 µM and 0.047 µM, respectively. In addition, in data set [3], the Activity entry is given as “Non-Toxic”. In addition, in data set [4], the half-life is 10 h. Also, the fAUC in data set [6] worked out at 0.13 µM·h. Moreover, the fVdss in data set [7] is 60 L/kg; in data set [11], 130 L/kg. Also, in data set [8], the Vdss was found to be 0.12 L/kg. A half-maximal effect in [10] (EC50) was put at 6.9 µM. This compound also came in with a CLH in [12] of 4.7 µL/min.
